Tests used:
MCF7 cells = experiment: Caspase 3/7 activity assay, MCF7; assay type: cell-based, human; details: 2.5 μM overnight
Procedure: (§1) The apoptosis was measured by Caspase-Glo® 3/7 assay (Promega) following the manufacturer's protocol. The cells were plated in 6-well tissue culture dish (10^4 cells/well) (BD Falcon) in respective media. […] The blank reactions were prepared per direction. Equal volume of Caspase-Glo® 3/7 reagents were applied to each well. A luminometer (Sirius) was used to quantitate luminescence.

[1] = tested on: E2F1 transcriptional activity; experiment: E2F1 activity reporter assay (p14Arf promoter dual luciferase) in HEK293 cells; assay type: cell-based, human
Procedure: E2F1 activity reporter assay using a p14^ARF promoter-luciferase plasmid was performed as described (Liu et al. 2003). p53 activity reporter assay was performed by a p21^Cip promoter-luciferase plasmid (Liu et al. 2009). p73 activity reporter assay was performed using a pGL3-Bax promoter-luciferase plasmid (Liu et al. 2011). pRL-TK (Renilla luciferase, Promega) was used in all experiments for controlling transfection efficiency. The firefly and Renilla luciferase activities were measured by Dual-Luciferase Reporter System (Promega), and the firefly luciferase activities were normalized against the Renilla activity. All assays were performed in triplicate.

[2] = target: T1, TopBP1/mutp53 (R249S) interaction (Homo sapiens, UniProt Q92547); experiment: Co-immunoprecipitation in BT549 cells, TopBP1/mutp53; assay type: cell-based; details: 2.5 μM
T1 construct: endogenous in cells; host or cells: BT549
T1 sequence (Q92547 whole entry, stated change not applied): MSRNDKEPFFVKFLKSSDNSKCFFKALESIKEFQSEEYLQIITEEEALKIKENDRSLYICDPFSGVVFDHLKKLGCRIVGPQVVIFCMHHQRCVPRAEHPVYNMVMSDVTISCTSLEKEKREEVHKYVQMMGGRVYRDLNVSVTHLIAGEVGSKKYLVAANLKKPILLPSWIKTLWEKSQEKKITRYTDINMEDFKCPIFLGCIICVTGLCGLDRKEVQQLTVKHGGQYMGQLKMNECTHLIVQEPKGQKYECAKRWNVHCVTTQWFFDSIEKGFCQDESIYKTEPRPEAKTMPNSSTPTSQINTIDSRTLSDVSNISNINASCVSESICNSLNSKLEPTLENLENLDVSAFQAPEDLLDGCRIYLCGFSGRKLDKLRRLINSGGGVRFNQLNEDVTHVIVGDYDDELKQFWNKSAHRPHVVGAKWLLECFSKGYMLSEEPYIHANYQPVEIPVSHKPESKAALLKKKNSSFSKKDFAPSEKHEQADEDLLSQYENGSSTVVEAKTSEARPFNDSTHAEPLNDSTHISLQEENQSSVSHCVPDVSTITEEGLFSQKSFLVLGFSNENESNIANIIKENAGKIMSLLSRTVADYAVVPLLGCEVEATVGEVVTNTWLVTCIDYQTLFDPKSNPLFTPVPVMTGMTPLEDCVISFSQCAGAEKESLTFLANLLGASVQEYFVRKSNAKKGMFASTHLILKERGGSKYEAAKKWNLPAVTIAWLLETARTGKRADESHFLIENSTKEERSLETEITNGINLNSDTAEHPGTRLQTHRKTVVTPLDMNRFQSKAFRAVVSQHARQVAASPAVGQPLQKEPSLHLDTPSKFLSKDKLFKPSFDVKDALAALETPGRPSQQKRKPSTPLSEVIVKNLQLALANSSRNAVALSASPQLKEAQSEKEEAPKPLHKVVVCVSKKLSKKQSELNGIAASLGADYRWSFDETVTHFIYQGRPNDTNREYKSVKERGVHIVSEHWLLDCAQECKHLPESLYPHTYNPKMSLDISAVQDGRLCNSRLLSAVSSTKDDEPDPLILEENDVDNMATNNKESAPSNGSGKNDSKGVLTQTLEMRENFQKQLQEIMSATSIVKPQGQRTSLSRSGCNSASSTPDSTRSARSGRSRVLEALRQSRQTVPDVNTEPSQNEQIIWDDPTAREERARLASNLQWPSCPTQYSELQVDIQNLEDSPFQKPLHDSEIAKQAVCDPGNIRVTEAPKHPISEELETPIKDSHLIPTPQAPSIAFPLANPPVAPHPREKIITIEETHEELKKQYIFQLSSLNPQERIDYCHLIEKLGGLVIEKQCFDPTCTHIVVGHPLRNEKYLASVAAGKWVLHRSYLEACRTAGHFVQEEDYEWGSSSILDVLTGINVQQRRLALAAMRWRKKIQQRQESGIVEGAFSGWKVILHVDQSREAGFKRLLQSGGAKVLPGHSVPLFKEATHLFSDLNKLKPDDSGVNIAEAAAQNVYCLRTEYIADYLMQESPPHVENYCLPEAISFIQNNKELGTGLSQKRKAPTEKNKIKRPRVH

[3] = tested on: 4T1 mouse breast tumor cells; experiment: Apoptosis in mouse tumor cells; assay type: cell-based
Procedure: as §1

[4] = tested on: mice (intestinal tissues); experiment: Tolerability and acute toxicity in proliferating tissues after i.p. injection; assay type: in vivo
[5] = tested on: T47D (PIK3CA mutant H1047R); details: NCI-60 cell lines database; cited from earlier work
A549 = details: NCI-DTP database; cited from earlier work
mice = details: cited from earlier work
MDA-MB468 xenografts = experiment: MDA-MB468 xenograft model; assay type: in vivo, nude mice
Procedure: Female nu/nu mice (4-5 weeks old) were purchased from Charles River Laboratories (Cambridge, Mass.). The animals were cared for and maintained by the Animal Care and Use Committee of Baylor College of Medicine. Freshly grown MDA-MB468 breast cancer cells [(8×10^6) cells per site in 100 μl phosphate-buffered saline (PBS)] were injected subcutaneously into the right side of the flank of the 5-6 weeks old mice. When tumors were measurable, the mice were randomly divided into treatment and control groups. […] The control group mice were injected with vehicle (DMSO) in the same way. The mice were monitored thrice per week. The weight of the mice and tumor size were measured on the indicated day with a caliper and calculated based on the formula π/6 (length×depth×width). The evaluator was blinded to the group allocation during monitoring. Animals were sacrificed in the indicated dates, and tumors were harvested, weighed, and further processed for histopathological analysis. All experiments were performed under a Baylor College of Medicine Institutional Animal Care and Use Committee (IACUC)-approved protocol and all experiments confirm to IACUC standards and ethical regulations.
Next day the samples were sent to The Pathology and Histology Core of Baylor College of Medicine for further processing. The paraffin-embedded sections were stained with H&E, Ki-67, TUNEL and anti-cleaved caspase-3 using standard operating protocols.

[6] = tested on: McA-RH7777 rat hepatoma cells; experiment: Apoptosis in rat tumor cells; assay type: cell-based
Procedure: as §1

mutp53/p73 interaction = experiment: Anti-p73 immunoprecipitation in MDA-MB468 cells; assay type: cell-based, human; details: 2.5 μM, 5 h
Procedure: MDA-MB468 cells were lysed with TNN buffer (Liu et al. 2003). An aliquot of cell lysates was lysed with SDS lysis buffer and the rest of cell lysates were incubated with appropriate antibodies or beads at 4° C. for 3-12 h. Anti-FLAG beads (Sigma) were washed three times with TNN buffer. Immunoprecipitates were fractionated by SDS-PAGE and electro-transferred to Immobilon-P membrane (Millipore). Equal amount of protein loading was validated with Ponceau-S staining. The specific signals were detected by incubating with appropriate antibody. All primary antibodies were used at 1:1000 dilution and horseradish peroxidase (HRP)-conjugated secondary antibodies were used at 1:5000 dilution for immunoblotting. E2F1 (C-20 and KH-95), p53 (FL393), p63 (4A4 and H-129), p73 (H-79), p21 (C-19), Bax (N-20), GST (B-14), c-Myc (A14), Miz1 (H-190), Chk1 (G4), Actin (C-2) and GAPDH (6C5) antibodies were purchased from Santa Cruz. TopBP1 (mouse monoclonal) and Aid antibodies were purchased from BD Transduction Laboratories. TopBP1 (BL893, Rabbit polyclonal) antibody was purchased from Bethyl. Mouse monoclonal anti-phospho-γH2AX was purchased from Millipore. Phospho-Chk1 (Ser345) antibody was purchased from Cell signaling. FLAG (F7425) antibody was purchased from Sigma. Mouse monoclonal anti-p73 (IMG-246) was purchased from IMGENEX.

[7] = tested on: p53 targets p21 and Bax in HCT116 cells; experiment: Induction of p21 and Bax in isogenic p53+/+ and p53−/− HCT116 cells; assay type: cell-based; details: p53+/+ versus p53−/− HCT116
NCI-H460 = details: NCI-DTP database; cited from earlier work
[8] = tested on: E2F1, p63/p73 and NF-Y target genes; experiment: Real-time RT-PCR of E2F1, p63/p73 and NF-Y target genes in MDA-MB468 cells; assay type: cell-based, human; details: 2.5 μM, 5 h
Procedure: RNA was isolated using TRIzol method (Invitrogen). Quantitative reverse transcription-PCR (RT-PCR) was performed in triplicate using the forward and reverse primers ((Chowdhury et al. 2014) Supplementary FIG. 18) on an MX3005P thermal cycler using SYBR green dye method to observe the progress of the reactions with ROX dye, which was added as reference. GAPDH was run in parallel with target genes.

[9] = 40 mg/kg i.p. every three days for three doses

Structure (SMILES): CC(=O)OCOC(=O)CN(CC(=O)OCOC(C)=O)Cc1cc2c(cc1OC(C)=O)Oc1cc(OC(C)=O)c(CN(CC(=O)OCOC(C)=O)CC(=O)OCOC(C)=O)cc1C21OC(=O)c2ccccc21 [Calcein AM, Calcein AM (acetoxymethyl ester)]
- apoptosis (caspase 3/7 activity) (MCF7 cells): induced apoptosis
- E2F1 transcriptional activity [1]: enhanced
- interaction between TopBP1 and mutp53 [2]: inhibited
- apoptosis [3]: induced apoptosis
- apparent toxicity in injected mice ([4]; 40 mg/kg): did not manifest any apparent toxicity
- Ki-67 staining in intestinal epithelium ([4]; 40 mg/kg, 48 h after injection): did not decrease Ki-67 staining
- apoptosis in intestinal epithelium ([4]; 40 mg/kg, 48 h after injection): nor did it induce apoptosis
- tolerability of i.p. injections ([4]; throughout the course of treatment): appeared to tolerate
- GI50 [5]: 1400 nM
- GI50 (A549): < 1000 nM
- oral LD50 (mice; oral): 17000 mg/kg
- percutaneous LD50 (mice; percutaneous): 5000 mg/kg
- body weights of mice (MDA-MB468 xenografts; [9]): without affecting body weights
- expression of proliferation marker Ki-67 in xenografts (MDA-MB468 xenografts; [9]): significantly inhibited
- xenograft growth (MDA-MB468 xenografts; [9]): significantly inhibited xenograft growth
- immunohistochemistry of xenografts (Ki-67, TUNEL, cleaved caspase 3) (MDA-MB468 xenografts; one week after the second injection): inhibition of proliferation and induction of apoptosis
- tumor response to second round of treatment (MDA-MB468 xenografts; regrown tumors, second round from day 61): responded to Calcein AM injection again
- apoptosis [6]: induced apoptosis
- binding of p73 to mutp53 (mutp53/p73 interaction): release of p73 from mutp53
- induction of p21 and Bax [7]: observed on in p53^+/+, but not in p53^−/−
- GI50 (NCI-H460): < 1000 nM
- E2F1 pro-apoptotic target genes (p73, Apaf1, caspase 3) [8]: up-regulated
- NF-Y target genes (Cdk1, Cdc25C, Cyclin A2) [8]: down-regulation
- p63/p73 target genes (Bax, Noxa, Hdm2) [8]: up-regulation
- induction of E2F1, p63/p73 and NF-Y target gene expression ([8]; TopBP1-depleted cells): less significant

From patent publication US9636323B2, “Method of treating cancer that overexpresses TopBP1” (Baylor College of Medicine, priority 2014, dated 2017)
